Source: PubChem BioAssay (NCI)
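Protocol summary: plate cells (96-well), add compound at 5 concentrations, incubate 48 h, interpolate endpoints linearly. GI50: concentration for 50% inhibition of growth. The concentration for full growth arrest is given as TGI.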

Assays:
Experiment in all cases: NCI-60 cell line screen, 48 h
SK-MEL-2 melanoma = test system: SK-MEL-2 melanoma
KM12 colon = test system: KM12 colon
LOX IMVI melanoma = test system: LOX IMVI melanoma
RXF 393 renal = test system: RXF 393 renal
MOLT-4 leukemia = test system: MOLT-4 leukemia
SN12C renal = test system: SN12C renal
BT-549 breast = test system: BT-549 breast
CAKI-1 renal = test system: CAKI-1 renal
SW-620 colon = test system: SW-620 colon
OVCAR-4 ovarian = test system: OVCAR-4 ovarian
DU-145 prostate = test system: DU-145 prostate
A498 renal = test system: A498 renal
NCI/ADR-RES ovarian = test system: NCI/ADR-RES ovarian
NCI-H522 lung = test system: NCI-H522 lung
UACC-62 melanoma = test system: UACC-62 melanoma
UACC-257 melanoma = test system: UACC-257 melanoma
HCT-116 colon = test system: HCT-116 colon
SK-OV-3 ovarian = test system: SK-OV-3 ovarian
OVCAR-5 ovarian = test system: OVCAR-5 ovarian
786-0 renal = test system: 786-0 renal
MALME-3M melanoma = test system: MALME-3M melanoma
MCF7 breast = test system: MCF7 breast
OVCAR-3 ovarian = test system: OVCAR-3 ovarian
K-562 leukemia = test system: K-562 leukemia
HCT-15 colon = test system: HCT-15 colon
M14 melanoma = test system: M14 melanoma
ACHN renal = test system: ACHN renal
PC-3 prostate = test system: PC-3 prostate
T-47D breast = test system: T-47D breast
CCRF-CEM leukemia = test system: CCRF-CEM leukemia
NCI-H460 lung = test system: NCI-H460 lung
MDA-MB-435 = test system: MDA-MB-435
SF-539 CNS = test system: SF-539 CNS
NCI-H226 lung = test system: NCI-H226 lung
SK-MEL-5 melanoma = test system: SK-MEL-5 melanoma
HOP-62 NSCLC = test system: HOP-62 NSCLC
SF-295 CNS = test system: SF-295 CNS
OVCAR-8 ovarian = test system: OVCAR-8 ovarian
UO-31 renal = test system: UO-31 renal
NCI-H23 lung = test system: NCI-H23 lung
SNB-75 CNS = test system: SNB-75 CNS
COLO 205 colon = test system: COLO 205 colon
HCC-2998 colon = test system: HCC-2998 colon
A549 NSCLC = test system: A549 NSCLC
SNB-19 CNS = test system: SNB-19 CNS
HS 578T breast = test system: HS 578T breast
HT29 colon = test system: HT29 colon
SK-MEL-28 melanoma = test system: SK-MEL-28 melanoma
SF-268 CNS = test system: SF-268 CNS
SR leukemia = test system: SR leukemia
TK-10 renal = test system: TK-10 renal
EKVX NSCLC = test system: EKVX NSCLC
U251 CNS = test system: U251 CNS
IGROV1 ovarian = test system: IGROV1 ovarian
HOP-92 NSCLC = test system: HOP-92 NSCLC
MDA-MB-231 breast = test system: MDA-MB-231 breast

O=C(Nc1ccc(Cl)c(C(F)(F)F)c1)Nc1ccc(-c2cccnc2)cc1N1CCC(CO)CC1
GI50 (SK-MEL-2 melanoma): 1.86 µM
TGI (SK-MEL-2 melanoma): 4.34 µM
GI50 (KM12 colon): 2.2 µM
TGI (KM12 colon): 6.44 µM
GI50 (LOX IMVI melanoma): 1.92 µM
TGI (LOX IMVI melanoma): 3.66 µM
GI50 (RXF 393 renal): 1.74 µM
TGI (RXF 393 renal): 3.34 µM
GI50 (MOLT-4 leukemia): 2.57 µM
TGI (MOLT-4 leukemia): > 100 µM
GI50 (SN12C renal): 3.46 µM
TGI (SN12C renal): 19 µM
GI50 (BT-549 breast): 2.13 µM
TGI (BT-549 breast): 6.22 µM
GI50 (CAKI-1 renal): 2.32 µM
TGI (CAKI-1 renal): 16 µM
GI50 (SW-620 colon): 2.76 µM
TGI (SW-620 colon): 27.2 µM
GI50 (OVCAR-4 ovarian): 2.97 µM
TGI (OVCAR-4 ovarian): > 100 µM
GI50 (DU-145 prostate): 3.74 µM
TGI (DU-145 prostate): > 100 µM
GI50 (A498 renal): 1.26 µM
TGI (A498 renal): 4.42 µM
GI50 (NCI/ADR-RES ovarian): 2.85 µM
TGI (NCI/ADR-RES ovarian): 9.11 µM
GI50 (NCI-H522 lung): 1.73 µM
TGI (NCI-H522 lung): 3.43 µM
GI50 (UACC-62 melanoma): 2.18 µM
TGI (UACC-62 melanoma): 6.75 µM
GI50 (UACC-257 melanoma): 3.47 µM
TGI (UACC-257 melanoma): 9.82 µM
GI50 (HCT-116 colon): 2.53 µM
TGI (HCT-116 colon): 6.9 µM
GI50 (SK-OV-3 ovarian): 2.22 µM
TGI (SK-OV-3 ovarian): 6.59 µM
GI50 (OVCAR-5 ovarian): 2.96 µM
TGI (OVCAR-5 ovarian): > 100 µM
GI50 (786-0 renal): 1.84 µM
TGI (786-0 renal): 4.52 µM
GI50 (MALME-3M melanoma): 2.27 µM
TGI (MALME-3M melanoma): 7.36 µM
GI50 (MCF7 breast): 2.2 µM
TGI (MCF7 breast): 6.96 µM
GI50 (OVCAR-3 ovarian): 1.84 µM
TGI (OVCAR-3 ovarian): 4.3 µM
GI50 (K-562 leukemia): 3.3 µM
TGI (K-562 leukemia): > 100 µM
GI50 (HCT-15 colon): 2.32 µM
TGI (HCT-15 colon): 8.01 µM
GI50 (M14 melanoma): 1.93 µM
TGI (M14 melanoma): 4.85 µM
GI50 (ACHN renal): 3 µM
TGI (ACHN renal): > 100 µM
GI50 (PC-3 prostate): 1.87 µM
TGI (PC-3 prostate): 5.37 µM
GI50 (T-47D breast): 2.09 µM
TGI (T-47D breast): 7.76 µM
GI50 (CCRF-CEM leukemia): 2.9 µM
TGI (CCRF-CEM leukemia): > 100 µM
GI50 (NCI-H460 lung): 2.32 µM
TGI (NCI-H460 lung): 6.24 µM
GI50 (MDA-MB-435): 1.91 µM
TGI (MDA-MB-435): 4.53 µM
GI50 (SF-539 CNS): 2.29 µM
TGI (SF-539 CNS): 5.84 µM
GI50 (NCI-H226 lung): 2.68 µM
TGI (NCI-H226 lung): 9.79 µM
GI50 (SK-MEL-5 melanoma): 1.63 µM
TGI (SK-MEL-5 melanoma): 3.12 µM
GI50 (HOP-62 NSCLC): 2.02 µM
TGI (HOP-62 NSCLC): 5.09 µM
GI50 (SF-295 CNS): 2.11 µM
TGI (SF-295 CNS): 5.15 µM
GI50 (OVCAR-8 ovarian): 3.75 µM
TGI (OVCAR-8 ovarian): 35.4 µM
GI50 (UO-31 renal): 2.43 µM
TGI (UO-31 renal): > 100 µM
GI50 (NCI-H23 lung): 2.78 µM
TGI (NCI-H23 lung): 9.55 µM
GI50 (SNB-75 CNS): 2.1 µM
TGI (SNB-75 CNS): 8.03 µM
GI50 (COLO 205 colon): 1.65 µM
TGI (COLO 205 colon): 3.18 µM
GI50 (HCC-2998 colon): 2.31 µM
TGI (HCC-2998 colon): 4.9 µM
GI50 (A549 NSCLC): 3.45 µM
TGI (A549 NSCLC): 23.8 µM
GI50 (SNB-19 CNS): 3.89 µM
TGI (SNB-19 CNS): > 100 µM
GI50 (HS 578T breast): 2.79 µM
TGI (HS 578T breast): 8.46 µM
GI50 (HT29 colon): 1.92 µM
TGI (HT29 colon): 4.02 µM
GI50 (SK-MEL-28 melanoma): 2.22 µM
TGI (SK-MEL-28 melanoma): 5.71 µM
GI50 (SF-268 CNS): 2.39 µM
TGI (SF-268 CNS): 8.21 µM
GI50 (SR leukemia): 3.49 µM
TGI (SR leukemia): > 100 µM
GI50 (TK-10 renal): 1.85 µM
TGI (TK-10 renal): 4.76 µM
GI50 (EKVX NSCLC): 1.72 µM
TGI (EKVX NSCLC): > 100 µM
GI50 (U251 CNS): 2.41 µM
TGI (U251 CNS): 7.1 µM
GI50 (IGROV1 ovarian): 3.48 µM
TGI (IGROV1 ovarian): > 100 µM
GI50 (HOP-92 NSCLC): 2.22 µM
TGI (HOP-92 NSCLC): 5.6 µM
GI50 (MDA-MB-231 breast): 1.92 µM
TGI (MDA-MB-231 breast): 4.34 µM
